Assay results taken from US20050197350A1, “Novel quinoline, tetrahydroquinazoline, and pyrimidine derivatives and methods of treatment related to the use thereof” (TAISHO PHARMACEUTICAL CO., LTD., priority 2003, published 2005).

Each molecule was assayed on MCH receptors (assay: MCH receptor activity class (method not given)). Conditions: activity class per percent of control at 10^-7 M or IC50.

Which class does the source give for `CN(C)c1nc(N[C@H]2CC[C@@H](NC(=O)Cc3cccc(Oc4ccccc4)c3)CC2)nc2c1CCCC2` [compound 1003] here?
The class was 2 (Class 2: The value of percent of control at 10^−7 M was from 40% to 60% or the value of IC′50 was from 50 nM to 200 nM.).

`CN(C)c1nc(N[C@H]2CC[C@@H](NC(=O)Cc3ccc(Oc4ccccc4)cc3)CC2)nc2c1CCCC2` [compound 1004] was tested. Which class did it give?
The class was 2 (Class 2: The value of percent of control at 10^−7 M was from 40% to 60% or the value of IC′50 was from 50 nM to 200 nM.).

`CN(C)c1nc(N[C@H]2CC[C@@H](NC(=O)Cc3c(-c4ccccc4)[nH]c4ccccc34)CC2)nc2c1CCCC2` [compound 1005] was tested. Which class did it give?
Its class is 1 (Class 1: The value of percent of control at 10^−7 M was less than 40% or the value of IC50 was less than 50 nM.).

`CN(C)c1nc(N[C@H]2CC[C@@H](NC(=O)c3cccc(Oc4ccccc4)c3)CC2)nc2c1CCCC2` [compound 1007] was tested. Which class did it give?
Its class is 1 (Class 1: The value of percent of control at 10^−7 M was less than 40% or the value of IC50 was less than 50 nM.).

How did the class turn out when `CN(C)c1nc(N[C@H]2CC[C@@H](NC(=O)c3ccccc3CCc3ccccc3)CC2)nc2c1CCCC2` [compound 1008] was run?
The class was 3 (Class 3 The value of percent of control at 10^−7 M was more than 60% or the value of IC50 was more than 200 nM.).

How did the class turn out when `CN(C)c1nc(N[C@H]2CC[C@@H](NC(=O)c3cccc(C(=O)c4ccccc4)c3)CC2)nc2c1CCCC2` [compound 1009] was run?
Its class is 3 (Class 3 The value of percent of control at 10^−7 M was more than 60% or the value of IC50 was more than 200 nM.).

With `CCSC(C(=O)N[C@H]1CC[C@@H](Nc2nc3c(c(N(C)C)n2)CCCC3)CC1)(c1ccccc1)c1ccccc1` [compound 1010] as the molecule, how does the class read?
The class was 2 (Class 2: The value of percent of control at 10^−7 M was from 40% to 60% or the value of IC′50 was from 50 nM to 200 nM.).

With `CN(C)c1nc(N[C@H]2CC[C@@H](NC(=O)c3ccccc3Sc3ccccc3C#N)CC2)nc2c1CCCC2` [compound 1011] as the molecule, how does the class read?
The class was 3 (Class 3 The value of percent of control at 10^−7 M was more than 60% or the value of IC50 was more than 200 nM.).

How did the class turn out when `COc1cc(CC(=O)N[C@H]2CC[C@@H](Nc3nc4c(c(N(C)C)n3)CCCC4)CC2)ccc1OCc1ccccc1` [compound 1012] was run?
The class was 3 (Class 3 The value of percent of control at 10^−7 M was more than 60% or the value of IC50 was more than 200 nM.).

`C[C@@H](NC(=O)c1ccccc1C(=O)N[C@H]1CC[C@@H](Nc2nc3c(c(N(C)C)n2)CCCC3)CC1)c1cccc2ccccc12` [compound 1013] was tested. Which class did it give?
The class was 3 (Class 3 The value of percent of control at 10^−7 M was more than 60% or the value of IC50 was more than 200 nM.).

With `C[C@H](C(=O)N[C@H]1CC[C@@H](Nc2nc3c(c(N(C)C)n2)CCCC3)CC1)c1cccc(C(=O)c2ccccc2)c1` [compound 1014] as the molecule, how does the class read?
Its class is 3 (Class 3 The value of percent of control at 10^−7 M was more than 60% or the value of IC50 was more than 200 nM.).

Which class does the source give for `C[C@@H](c1ccccc1)N(C(=O)c1ccccc1C(=O)N[C@H]1CC[C@@H](Nc2nc3c(c(N(C)C)n2)CCCC3)CC1)[C@@H](C)c1ccccc1` [compound 1015] here?
Its class is 1 (Class 1: The value of percent of control at 10^−7 M was less than 40% or the value of IC50 was less than 50 nM.).

How did the class turn out when `C[C@H](C(=O)N[C@H]1CC[C@@H](Nc2nc3c(c(N(C)C)n2)CCCC3)CC1)c1ccc(-c2ccccc2)c(F)c1` [compound 1016] was run?
The class was 2 (Class 2: The value of percent of control at 10^−7 M was from 40% to 60% or the value of IC′50 was from 50 nM to 200 nM.).

`CN(C)c1nc(N[C@H]2CC[C@@H](NC(=O)CCC(=O)c3cccs3)CC2)nc2c1CCCC2` [compound 1021] was tested. Which class did it give?
The class was 3 (Class 3 The value of percent of control at 10^−7 M was more than 60% or the value of IC50 was more than 200 nM.).

`CN(C)c1nc(N[C@H]2CC[C@@H](NC(=O)CCCc3cccs3)CC2)nc2c1CCCC2` [compound 1022] was tested. Which class did it give?
The class was 3 (Class 3 The value of percent of control at 10^−7 M was more than 60% or the value of IC50 was more than 200 nM.).

How did the class turn out when `CN(C)c1nc(N[C@H]2CC[C@@H](NC(=O)COc3c(Cl)cc(Cl)cc3Cl)CC2)nc2c1CCCC2` [compound 1023] was run?
Its class is 3 (Class 3 The value of percent of control at 10^−7 M was more than 60% or the value of IC50 was more than 200 nM.).

Which class does the source give for `CN(C)c1nc(N[C@H]2CC[C@@H](NC(=O)Cc3c[nH]c4ccc(OCc5ccccc5)cc34)CC2)nc2c1CCCC2` [compound 1024] here?
The class was 3 (Class 3 The value of percent of control at 10^−7 M was more than 60% or the value of IC50 was more than 200 nM.).

How did the class turn out when `CN(C)c1nc(N[C@H]2CC[C@@H](NC(=O)c3ccccc3C(=O)c3cccc4ccccc34)CC2)nc2c1CCCC2` [compound 1025] was run?
The class was 3 (Class 3 The value of percent of control at 10^−7 M was more than 60% or the value of IC50 was more than 200 nM.).

How did the class turn out when `COc1ccc(C(=O)N[C@H]2CC[C@@H](Nc3nc4c(c(N(C)C)n3)CCCC4)CC2)cc1OCc1ccccc1` [compound 1026] was run?
The class was 1 (Class 1: The value of percent of control at 10^−7 M was less than 40% or the value of IC50 was less than 50 nM.).

Which class does the source give for `Cc1c(C(=O)N[C@H]2CC[C@@H](Nc3nc4c(c(N(C)C)n3)CCCC4)CC2)cc(-c2ccccc2)n1-c1ccccc1` [compound 1027] here?
Its class is 2 (Class 2: The value of percent of control at 10^−7 M was from 40% to 60% or the value of IC′50 was from 50 nM to 200 nM.).

Which class does the source give for `Cc1c(C(=O)N[C@H]2CC[C@@H](Nc3nc4c(c(N(C)C)n3)CCCC4)CC2)cc(-c2ccccc2)n1CCSCc1c(F)cccc1Cl` [compound 1028, 1-{2-[(2-chloro-6-fluorobenzyl)thio]ethyl}-N-(cis-4-{[4-(dimethy-lamino)-5,6,7,8-tetrahydroquinazolin-2-yl]amino}-cyclohexyl)-2-methyl-5-phenyl-1H-pyrrole-3-carboxamide] here?
Its class is 2 (Class 2: The value of percent of control at 10^−7 M was from 40% to 60% or the value of IC′50 was from 50 nM to 200 nM.).

How did the class turn out when `CN(C)c1nc(N[C@H]2CC[C@@H](NC(=O)c3c4ccccc4cc4ccccc34)CC2)nc2c1CCCC2` [compound 1029] was run?
The class was 3 (Class 3 The value of percent of control at 10^−7 M was more than 60% or the value of IC50 was more than 200 nM.).

For `CN(C)c1nc(N[C@H]2CC[C@@H](NC(=O)c3ccccc3Oc3ccccc3)CC2)nc2c1CCCC2` [compound 1030], which class is on record?
Its class is 1 (Class 1: The value of percent of control at 10^−7 M was less than 40% or the value of IC50 was less than 50 nM.).

`CN(C)c1nc(N[C@H]2CC[C@@H](NC(=O)c3ccccc3-c3ccccc3)CC2)nc2c1CCCC2` [compound 1031] was tested. Which class did it give?
The class was 3 (Class 3 The value of percent of control at 10^−7 M was more than 60% or the value of IC50 was more than 200 nM.).

With `CN(C)c1nc(N[C@H]2CC[C@@H](NC(=O)CC(c3ccccc3)c3ccccc3)CC2)nc2c1CCCC2` [compound 1032] as the molecule, how does the class read?
Its class is 3 (Class 3 The value of percent of control at 10^−7 M was more than 60% or the value of IC50 was more than 200 nM.).

For `CN(C)c1nc(N[C@H]2CC[C@@H](NC(=O)c3cc(-c4ccccc4)nc4ccccc34)CC2)nc2c1CCCC2` [compound 1033], which class is on record?
The class was 2 (Class 2: The value of percent of control at 10^−7 M was from 40% to 60% or the value of IC′50 was from 50 nM to 200 nM.).

How did the class turn out when `C[C@H](NC(=O)c1ccccc1C(=O)N[C@H]1CC[C@@H](Nc2nc3c(c(N(C)C)n2)CCCC3)CC1)c1ccccc1` [compound 1034] was run?
Its class is 3 (Class 3 The value of percent of control at 10^−7 M was more than 60% or the value of IC50 was more than 200 nM.).

With `Cc1ccc(C(=O)c2ccccc2C(=O)N[C@H]2CC[C@@H](Nc3nc4c(c(N(C)C)n3)CCCC4)CC2)cc1` [compound 1035] as the molecule, how does the class read?
Its class is 3 (Class 3 The value of percent of control at 10^−7 M was more than 60% or the value of IC50 was more than 200 nM.).

For `CN(C)c1nc(N[C@H]2CC[C@@H](NC(=O)c3ccccc3COc3ccccc3)CC2)nc2c1CCCC2` [compound 1036], which class is on record?
The class was 3 (Class 3 The value of percent of control at 10^−7 M was more than 60% or the value of IC50 was more than 200 nM.).

For `CN(C)c1nc(N[C@H]2CC[C@@H](NC(=O)Cc3sc(-c4ccccc4)nc3-c3ccc(Cl)cc3)CC2)nc2c1CCCC2` [compound 1037], which class is on record?
The class was 3 (Class 3 The value of percent of control at 10^−7 M was more than 60% or the value of IC50 was more than 200 nM.).

Which class does the source give for `Cc1ccc(S(=O)(=O)n2ccc(C(=O)N[C@H]3CC[C@@H](Nc4nc5c(c(N(C)C)n4)CCCC5)CC3)c2)cc1` [compound 1038] here?
The class was 3 (Class 3 The value of percent of control at 10^−7 M was more than 60% or the value of IC50 was more than 200 nM.).

For `CN(C)c1nc(N[C@H]2CC[C@@H](NC(=O)c3ccc(-c4cccc([N+](=O)[O-])c4)o3)CC2)nc2c1CCCC2` [compound 1039], which class is on record?
The class was 2 (Class 2: The value of percent of control at 10^−7 M was from 40% to 60% or the value of IC′50 was from 50 nM to 200 nM.).

Which class does the source give for `CN(C)c1nc(N[C@H]2CC[C@@H](NC(=O)c3scc(S(C)(=O)=O)c3Cl)CC2)nc2c1CCCC2` [compound 1040] here?
The class was 3 (Class 3 The value of percent of control at 10^−7 M was more than 60% or the value of IC50 was more than 200 nM.).

How did the class turn out when `CSc1sc(C(=O)N[C@H]2CC[C@@H](Nc3nc4c(c(N(C)C)n3)CCCC4)CC2)c(Cl)c1S(=O)(=O)C(C)C` [compound 1041] was run?
The class was 3 (Class 3 The value of percent of control at 10^−7 M was more than 60% or the value of IC50 was more than 200 nM.).

`CSc1sc(C(=O)N[C@H]2CC[C@@H](Nc3nc4c(c(N(C)C)n3)CCCC4)CC2)c(I)c1S(=O)(=O)C(C)C` [compound 1042] was tested. Which class did it give?
The class was 3 (Class 3 The value of percent of control at 10^−7 M was more than 60% or the value of IC50 was more than 200 nM.).

How did the class turn out when `CN(C)c1nc(N[C@H]2CC[C@@H](NC(=O)c3csc([N+](=O)[O-])c3)CC2)nc2c1CCCC2` [compound 1043] was run?
Its class is 1 (Class 1: The value of percent of control at 10^−7 M was less than 40% or the value of IC50 was less than 50 nM.).

How did the class turn out when `CN(C)c1nc(N[C@H]2CC[C@@H](NC(=O)c3cc([N+](=O)[O-])cn3C)CC2)nc2c1CCCC2` [compound 1044] was run?
The class was 1 (Class 1: The value of percent of control at 10^−7 M was less than 40% or the value of IC50 was less than 50 nM.).

`CN(C)c1nc(N[C@H]2CC[C@@H](NC(=O)c3cn(S(=O)(=O)c4ccccc4)c4ccccc34)CC2)nc2c1CCCC2` [compound 1045] was tested. Which class did it give?
Its class is 3 (Class 3 The value of percent of control at 10^−7 M was more than 60% or the value of IC50 was more than 200 nM.).

`CN(C)c1nc(N[C@H]2CC[C@@H](NC(=O)c3ccc([N+](=O)[O-])cc3)CC2)nc2c1CCCC2` [compound 1046] was tested. Which class did it give?
The class was 3 (Class 3 The value of percent of control at 10^−7 M was more than 60% or the value of IC50 was more than 200 nM.).
